According to US20120225417A1, “Methods, Compositions and Kits for the Evaluation and Preservation of Sperm” (I'Alliance Boviteq Inc., priority 2011, published 2012):

Key:
Format in all cases: biochemical
[1] = test system: 3′-5′ cAMP-PDE activity in bovine spermatozoa; experiment: 3′-5′ cAMP-PDE assay with family-specific PDE inhibitors in bovine spermatozoa; conditions: for Percentage of family specific sensitive PDE activity, 3 h Egg yolk: bovine spermatozoa after 3 h in egg yolk based cryoprotectant at 18° C.; for Percentage of family specific sensitive PDE activity, 3 h Liquid semen: bovine spermatozoa after 3 h in liquid semen extender at 18° C.; for Percentage of family specific sensitive PDE activity, 3 h 4° C.: bovine spermatozoa after 3 h in seminal plasma at 4° C.; for Percentage of family specific sensitive PDE activity, 3 h 18° C.: bovine spermatozoa after 3 h in seminal plasma at 18° C.; for Percentage of family specific sensitive PDE activity, Fresh: bovine spermatozoa rapidly after ejaculation (0 h); for Percentage of total PDE activity sensitive to the inhibitor: cilostamide 10 μM, rolipram 10 μM, papaverine 400 nM (FIG. 12B); for Percentage of sensitive PDE activity, Cryo (B): cryopreserved bovine spermatozoa; for Percentage of sensitive PDE activity, Cryo (B) / Percentage of sensitive PDE activity, Fresh (A): Cil 10 μM, Rol 10 μM, Papa 400 nM; for Percentage of sensitive PDE activity, Fresh (A): freshly ejaculated bovine spermatozoa
Protocol: The semen was obtained from different Holstein bulls. The fresh ejaculated semen was kept in an insulated thermos flask, at 18° C., during transportation to the laboratory and processed within 3 hours after collection. The cryopreserved semen was obtained at the Centre d'Insémination […] du Québec (CIAQ) […]. The cryopreserved straws of semen were prepared according to CIAQ procedures. […] After cutting one end of the straw the semen was collected in a 15 ml falcon while cutting the other end. From this point fresh and cryopreserved semen were processed similarly. Approximately 50 μL of the semen was added to 5 mL of Talp-BSA medium in a 15 mL falcon tube to wash the spermatozoa. After centrifugation (280×g, 10 min, room temperature), the remaining pellet of approximately 100 μL was resuspended in Talp-BSA medium (500 μl for the fresh and 200 μl for two straws) to reach a concentration of 1×10^6 cells/10 μL. The samples were then vortex-agitated for 30 sec and kept on the ice until ready to run the assay. The concentration of sperm cells was measured according to hemacytometer method. The cAMP enzymatic assay (PDE assay) was conducted as previously described ([…]. et al., (2006). […] J. et al., (1979). Adv Cyclic Nucleotide Res 10, 69-92) with minor modifications. […] Measurements were also performed in the presence of PDE inhibitors: […] Cilostamide and Rolipram were purchased from Biomol. […] Each PDE assay was performed in triplicate for each experiment and each experiment was repeated at least three times. As described ([…]. et al., (2009). […] IBMX-sensitive PDE5 and PDE6 and IBMX-insensitive PDE9 activities are absent from these groups because cGMP is the specific substrate and then are not detected in the cAMP-PDE assay. […] J Dairy Sci 92, 3757-3765; […]., et al. (2007). Endocrinology 148, 1858-1867; Siuciak, J. A. et al., (2006). Neuropharmacology 51, 386-396).

[2] = test system: 3′-5′ cAMP-PDE activity in human seminal plasma; experiment: 3′-5′ cAMP-PDE assay with family-specific PDE inhibitors in human seminal plasma; conditions: fresh human seminal plasma; Rolipram 10 μM, Papaverine 400 nM (FIG. 19)
Protocol: A certain amount of complete ejaculate was kept to isolate spermatozoa from seminal plasma. This portion was centrifuged at 400×g during 10 minutes at room temperature to gently pull down spermatozoa. Supernatant was transferred and centrifuged again at 6 000×g at 4° C. during 20 minutes to pull down any remaining spermatozoa. Supernatant was then transferred and centrifuged at 6 000×g at 4° C. during 20 minutes to remove any remaining debris. SP samples were kept on ice until used for PDE assay and stored at -80° C. for further characterization. The cAMP enzymatic assay (PDE assay) was conducted as previously described ([…]. et al., (2006). BMC developmental biology 6, 47). […] J. et al., (1979). Adv Cyclic Nucleotide Res 10, 69-92) with minor modifications. […] Measurements were also performed in the presence of PDE inhibitors: […] Cilostamide and Rolipram were purchased from Biomol. […] Each PDE assay was performed in triplicate for each experiment and each experiment was repeated at least three times. As described ([…]. et al., (2009). […] IBMX-sensitive PDE5 and PDE6 and IBMX-insensitive PDE9 activities are absent from these groups because cGMP is the specific substrate and then are not detected in the cAMP-PDE assay. […] J Dairy Sci 92, 3757-3765; […]., et al. (2007). Endocrinology 148, 1858-1867; Siuciak, J. A. et al., (2006). Neuropharmacology 51, 386-396).

[3] = test system: 3′-5′ cAMP-PDE activity in bovine testis, caput, cauda and seminal vesicles homogenates; experiment: 3′-5′ cAMP-PDE assay in bovine testis, caput, cauda and seminal vesicles homogenates; conditions: Rol 10 μM, Papa 400 nM (FIG. 3)
Protocol: After thoroughly vortex-agitating for about one minute, samples were centrifuged at 10 000×g for 4 minutes at room temperature. Supernatant fluid was collected and diluted in different volumes of hypotonic buffer depending on the tissue. Testis, caput and cauda homogenates were diluted in 1 mL of hypotonic buffer while seminal vesicle homogenates were diluted in 2 mL of hypotonic buffer. Homogenates were kept on ice until subjected to PDE assay. The cAMP enzymatic assay (PDE assay) was conducted as previously described ([…]. et al., (2006). BMC developmental biology 6, 47). […] J. et al., (1979). Adv Cyclic Nucleotide Res 10, 69-92) with minor modifications. […] Measurements were also performed in the presence of PDE inhibitors: […] Cilostamide and Rolipram were purchased from Biomol. […] Each PDE assay was performed in triplicate for each experiment and each experiment was repeated at least three times. As described ([…]. et al., (2009). […] IBMX-sensitive PDE5 and PDE6 and IBMX-insensitive PDE9 activities are absent from these groups because cGMP is the specific substrate and then are not detected in the cAMP-PDE assay. […] J Dairy Sci 92, 3757-3765; […]., et al. (2007). Endocrinology 148, 1858-1867; Siuciak, J. A. et al., (2006). Neuropharmacology 51, 386-396).

[4] = bovine spermatozoa, 1 μM cAMP, IBMX 1 mM

With `CN(C(=O)CCCOc1ccc2[nH]c(=O)ccc2c1)C1CCCCC1` [Cilostamide] the “Percentage of family specific sensitive PDE activity, 3 h Egg yolk” value (“Percentage … 3 h Egg yolk” below) [1] was 24%, the “Percentage of family specific sensitive PDE activity, 3 h Liquid semen” value (shortened to “Percentage … 3 h Liquid semen”) [1] was 7% and the “Percentage of family specific sensitive PDE activity, 3 h 4° C.” value (“Percentage … 3 h 4° C.” for short) [1] was 11%. For the same molecule, the “Percentage of family specific sensitive PDE activity, 3 h 18° C.” value (“Percentage … 3 h 18° C.” for short) [1] was 20%, the “Percentage of family specific sensitive PDE activity, Fresh” value [1] was 13% and the “Percentage of total PDE activity sensitive to the inhibitor” value (from here on “Percentage … to the inhibitor”) [1, 4] was 9%. The “Percentage of sensitive PDE activity, Cryo (B)” value (from here on “Percentage … (B)”) ([1]; IBMX 1 mM) was 5% and the “Percentage of sensitive PDE activity, Fresh (A)” value (“Percentage … (A)” for short) ([1]; IBMX 1 mM) was 14%.

For `CC(C)Cn1c(=O)n(C)c(=O)c2[nH]cnc21` [IBMX, 3-isobutyl-1-methylxanthine], the “Percentage … 3 h Egg yolk” value [1] was 96%, the “Percentage … 3 h Liquid semen” value [1] was 96% and the “Percentage … 3 h 4° C.” value [1] was 96%. For the same molecule, the “Percentage … 3 h 18° C.” value [1] was 95%, the “Percentage of family specific sensitive PDE activity, Fresh” value [1] was 95% and the “Percentage of total PDE activity that is IBMX-insensitive (PDE8)” value [1, 4] was 8%. The “Percentage … to the inhibitor” value [1, 4] was 92%, the “Percentage … (B)” value ([1]; IBMX 1 mM) was 96% and the “Percentage … (A)” value ([1]; IBMX 1 mM) was 94%.

`COc1ccc(C2CNC(=O)C2)cc1OC1CCCC1` (stereo not shown) [Rolipram] was tested, and the “Percentage … 3 h Egg yolk” value [1] was 18%, the “Percentage … 3 h Liquid semen” value [1] was 11% and the “Percentage … 3 h 4° C.” value [1] was 12%. For the same molecule, the “Percentage … 3 h 18° C.” value [1] was 9%, the “Percentage of family specific sensitive PDE activity, Fresh” value [1] was 11% and the “Percentage … to the inhibitor” value [1, 4] was 11%. For the same molecule, the “Percentage … (B)” value ([1]; IBMX 1 mM) was 10%, the “Percentage … (A)” value ([1]; IBMX 1 mM) was 12% and the “Inhibitor-sensitive PDE activity in human seminal plasma (in words)” value [2] was “high”. The “Inhibitor-sensitive PDE activity in bovine male reproductive tissues (in words)” value [3] was “highly functional”.

For `OCCN(CCO)c1nc(N2CCCCC2)c2nc(N(CCO)CCO)nc(N3CCCCC3)c2n1` [dipyridamol, dipyridamole], the “Increase of the inhibited proportion of cAMP-PDE activity relative to papaverine” value ([1]; freshly ejaculated bovine spermatozoa (FIG. 21)) was 10%.
